SMILES strings stand for the structures. Structures can show the parent of a compound that is named as a salt.

The target of the assay is T1, human CGT (ceramide galactosyltransferase), CHO/CGT lysate (Homo sapiens, UniProt Q16880).
T1 construct: Full-length human CGT cDNA was cloned into the BamH1/Xho1 site of pcDNA3.1 (+); expressed in transfected cells; host or cells: Chinese hamster ovary (CHO) cells; lysate prepared with M-PER
T1 sequence (Q16880 21-541): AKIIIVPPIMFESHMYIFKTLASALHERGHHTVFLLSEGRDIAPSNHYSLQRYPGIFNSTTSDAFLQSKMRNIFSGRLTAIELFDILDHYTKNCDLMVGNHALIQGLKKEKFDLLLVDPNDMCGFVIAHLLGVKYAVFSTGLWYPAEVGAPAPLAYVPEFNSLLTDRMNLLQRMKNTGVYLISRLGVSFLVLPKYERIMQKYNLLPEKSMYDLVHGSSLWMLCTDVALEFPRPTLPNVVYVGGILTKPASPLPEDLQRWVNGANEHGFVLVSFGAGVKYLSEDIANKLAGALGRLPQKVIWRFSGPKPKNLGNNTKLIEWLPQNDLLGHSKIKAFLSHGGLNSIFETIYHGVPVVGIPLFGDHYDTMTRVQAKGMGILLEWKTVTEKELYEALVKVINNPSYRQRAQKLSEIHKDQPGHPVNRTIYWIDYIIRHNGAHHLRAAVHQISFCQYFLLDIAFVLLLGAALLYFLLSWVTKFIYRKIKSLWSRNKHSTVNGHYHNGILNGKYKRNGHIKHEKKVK
The assay can be described thus: CGT enzyme assay, RapidFire/MS/MS readout (Table 1 ranges with one asterisk *). In kind it is biochemical. The conditions noted are these: RapidFire method (range with one asterisk *). The procedure: Full-length human CGT cDNA was cloned into the BamH1/Xho1 site of pcDNA3.1 (+) mammalian expression vector (V90-20, Invitrogen, Carlsbad, Calif.) and the plasmid was transfected into Chinese hamster ovary (CHO) cells. Lysate was prepared using M-PER (Mammalian Protein Extraction Reagent, ThermoFisher Scientific, Grand Island, N.Y.) in the presence of a protease inhibitor cocktail (P8340, Sigma, Saint Louis, Mo.). Each 100 mm dish (100% confluent, approximately 1×10^7 cells) was lysed with 250 μL of M-PER containing protease inhibitors. Protein concentration was determined using a Pierce BCA protein assay kit (ThermoFisher Scientific). Four micrograms of CHO/CGT lysate was incubated with various concentrations of a compound (0.001 μM-50 μM) in 10 mM HEPES (pH 7.2) containing 35 μM dioleoylphosphatidylcholine, 5 mM MgCl2, 5 mM MnCl2, 1% BSA, 15 mM KCl, 1 mM EGTA, 8 mM CHAPS, 10 μM C6-NBD-dihydro-ceramide and 17.5 μM UDP-galactose in a final reaction volume of 20 μL at 37° C. for 1 hour. The final concentration of DMSO was 0.5% in both compound-treated and mock-treated samples. Tween 80 (0.01%) was optionally added to the reaction mixture to help solubilize the compounds. Each individual reaction was diluted with 80 μL of methanol:acetronitrile (1:3) containing 5 μM N-docdecanoyl-NBD-galactosylceramide (internal standard) to stop the reaction. 200 μL H2O:acetonitile (1:1) was added to precipitate the protein. After sufficient mixing, the plates were centrifuged at 2469 g for 38 minutes, 200 μL of supernatant was transferred to a LC/MS 96-deep well plate and a second spin was performed at 2469 g for 10 minutes. The final supernatant was injected in triplicate for RapidFire/MS/MS analysis.
Quantitative Analysis Using the RapidFire/MS/MS Method:
The quantitative analysis of C6-NBD-dihydro-ceramide and C6-NBD-dihydro-galactosylceramide was performed on a Rapid Fire 360 high-throughput mass spectrometry system (Agilent Technologies, Palo Alto, Calif.) coupled with a API4000^+ triple quadrupole mass spectrometer (Applied Biosystems, Concord, Ontario, Canada). RapidFire software packages, including RapidFire Control panel, RapidFire UI and RapidFire Integrator (Agilent Technologies), were used to control the RapidFire instrument and to process data. Analyst 1.6.2 software packages (Applied Biosystems) were used to control the MS system and acquire MS data. […] of sample was loaded on a micro-scale C4 solid-phase extraction (SPE) cartridge (Agilent Technologies) and salts were removed using water supplemented with 0.1% formic acid at the flow rate of 1.5 mL/min for 3 sec. C6-NBD-dihydro-ceramide and C6-NBD-dihydro-galactosylceramide were co-eluted into the mass spectrometer using acetonitrile containing 0.1% formic acid at the flow rate of 1.0 mL/min for 3 sec. The total cycle time of one injection was 8 secs. The MS/MS detection was performed in ESI negative mode. The mass transition of C6-NBD-dihydro-galactosylceramide was m/z 752.6→678.6 using a −40 V collision energy, the mass transition of C6-NBD-dihydro-ceramide was m/z 590.6→115.8 using a −40 V collision energy and the mass transition of N-docdecanoyl-NBD-galactosylceramide was m/z 820.9→746.3 using a −45 V collision energy.
The C6-NBD-dihydro-galactosylceramide reading was normalized first by dividing the peak area of C6-NBD-dihydro-galactosylceramide by the peak area of the internal standard, N-docdecanoyl-NBD-galactosylceramide. IC50 values (see Table 1, where data ranges with one asterix (*) correspond to analysis using the RapidFire/MS/MS method, and data ranges with two asterixes (**) correspond to analysis using the RapidFire/MS/MS method with 0.01% Tween added) were generated from sigmoidal dose-response curves (variable slope) with GraphPad Prism software (GraphPad Software, Inc., San Diego, Calif.) using the normalized peak areas of C6-NBD-dihydro-galactosylceramide or the percent inhibition of C6-NBD-dihydro-galactosylceramide accumulation relative to DMSO control. […]
For the compound `NC1CC2CCC(C1)N2C(=O)[C@@H](NS(=O)(=O)c1ccc(OCC2CCCCC2)cc1)C(F)(F)c1ccc2cc(Br)ccc2c1` (stereo partly drawn) [Compound 40-1, N-((2R)-3-(3-amino-8-azabicyclo[3.2.1]octan-8-yl)-1-(6-bromonaphthalen-2-yl)-1,1-difluoro-3-oxopropan-2-yl)-4-(cyclohexylmethoxy) benzenesulfonamide trifluoroacetate], the IC50 fell in the range of 1 to 10 µM. For the compound `NC1CC2CCC(C1)N2C(=O)[C@H](NS(=O)(=O)c1ccc(OCC2CCCCC2)cc1)C(F)(F)c1ccc2cc(Br)ccc2c1` (stereo partly drawn) [Compound 40-2, N-((2S)-3-(3-amino-8-azabicyclo[3.2.1]octan-8-yl)-1-(6-bromonaphthalen-2-yl)-1,1-difluoro-3-oxopropan-2-yl)-4-(cyclohexylmethoxy)benzenesulfonamide trifluoroacetate], the half-maximal inhibitory concentration (IC50) lay in the range of 10 to 30 µM. For `NC1CC2CCC(C1)N2C(=O)[C@@H](NC(=O)[C@@H](O)c1ccc2cc(OC3CCCC3)ccc2c1)C(F)(F)c1ccc(Br)cc1` (stereo partly drawn) [Compound 41-3, (2S)—N-((2R)-3-(3-amino-8-azabicyclo[3.2.1]octan-8-yl)-1-(4-bromophenyl)-1,1-difluoro-3-oxopropan-2-yl)-2-(6-(cyclopentyloxy)naphthalen-2-yl)-2-hydroxyacetamide trifluoroacetate] the value was 1 to 10 µM; for `NC1CC2CCC(C1)N2C(=O)[C@H](NC(=O)[C@H](O)c1ccc2cc(OC3CCCC3)ccc2c1)C(F)(F)c1ccc(Br)cc1` (stereo partly drawn) [Compound 41-4, (2R)—N-((2S)-3-(3-amino-8-azabicyclo[3.2.1]octan-8-yl)-1-(4-bromophenyl)-1,1-difluoro-3-oxopropan-2-yl)-2-(6-(cyclopentyloxy)naphthalen-2-yl)-2-hydroxyacetamide trifluoroacetate], 30 to 100 µM; for `NC1CC2CCC(C1)N2C(=O)[C@@H](NC(=O)[C@H](O)c1ccc2cc(OC3CCCC3)ccc2c1)C(F)(F)c1ccc(Br)cc1` (stereo partly drawn) [Compound 41-5, (2R)—N-((2R)-3-(3-amino-8-azabicyclo[3.2.1]octan-8-yl)-1-(4-bromophenyl)-1,1-difluoro-3-oxopropan-2-yl)-2-(6-(cyclopentyloxy)naphthalen-2-yl)-2-hydroxyacetamide trifluoroacetate], 10 to 30 µM.

In the case of `NC1CC2CCC(C1)N2C(=O)[C@H](NC(=O)[C@@H](O)c1ccc2cc(OC3CCCC3)ccc2c1)C(F)(F)c1ccc(Br)cc1` (stereo partly drawn) [Compound 41-6, (2S)—N-((2S)-3-(3-amino-8-azabicyclo[3.2.1]octan-8-yl)-1-(4-bromophenyl)-1,1-difluoro-3-oxopropan-2-yl)-2-(6-(cyclopentyloxy)naphthalen-2-yl)-2-hydroxyacetamide trifluoroacetate], the IC50 was 30 to 100 µM. With `NC1CC2CCC(C1)N2C(=O)[C@@H](NS(=O)(=O)c1ccc2cc(OC3CCCC3)ccc2c1)C(F)(F)c1ccc(I)cc1` (stereo partly drawn) [Compound 42-1, N-((2R)-3-(3-amino-8-azabicyclo[3.2.1]octan-8-yl)-1,1-difluoro-1-(4-iodophenyl)-3-oxopropan-2-yl)-6-(cyclopentyloxy)naphthalene-2-sulfonamide trifluoroacetate] the figure was less than 1 µM; with `NC1CC2CCC(C1)N2C(=O)[C@H](NS(=O)(=O)c1ccc2cc(OC3CCCC3)ccc2c1)C(F)(F)c1ccc(I)cc1` (stereo partly drawn) [Compound 42-2, N-((2S)-3-(3-amino-8-azabicyclo[3.2.1]octan-8-yl)-1,1-difluoro-1-(4-iodophenyl)-3-oxopropan-2-yl)-6-(cyclopentyloxy) naphthalene-2-sulfonamide trifluoroacetate], 1 to 10 µM. For `NC1CCN(C(=O)[C@@H](NS(=O)(=O)c2ccc3cc(OC4CCCC4)ccc3c2)C(F)(F)c2ccc(-c3ccccc3)cc2)CC1` [Compound 43-1, (R)—N-(1-([1,1′-biphenyl]-4-yl)-3-(4-aminopiperidin-1-yl)-1,1-difluoro-3-oxopropan-2-yl)-6-(cyclopentyloxy)naphthalene-2-sulfonamide] the value was less than 1 µM.

Source of the values: patent US20190322676A1, “CERAMIDE GALACTOSYLTRANSFERASE INHIBITORS FOR THE TREATMENT OF DISEASE” (BioMarin Pharmaceutical Inc., priority 2016, published 2019).
